Source: patent US12606561B2, “Substituted pyrazolo[1,5-a][1,3,5]triazines as CDK inhibitors” (QURIENT CO., LTD., priority 2018, dated 2026)

Tests used:
A2780 = A2780 viability assay (CellTiter-Glo, 72 hours); format: cell-based; details: Homo sapiens; A2780 cells
In short: (§1)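 After a 24 h attachment period, cells received a 0.0015–10 uM compound titration and were incubated 72 h at 37° C, 5% CO2. Viability came from CellTiter-Glo luminescence measured in duplicate.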

CDK1/Cyclin B = target: T1, CDK1/Cyclin B (Homo sapiens, UniProt P06493); assay: Enzymatic assay for CDK1 (LANCE Ultra kinase assay, FRET based); format: biochemical; details: ATP at Km; read-out: CDK1 enzymatic activity IC50
T1 construct: purchased Invitrogen PR4768C
In short: (§2)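 With ATP set at its Km, compounds were tested against purified CDK/cyclin complexes phosphorylating a ULight-labeled peptide. Signal came from FRET between the peptide and a Europium-labeled anti-phospho-antibody.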

OVCAR-3 = OVCAR-3 viability assay (CellTiter-Glo, 72 hours); format: cell-based; details: Homo sapiens; OVCAR-3 cells
In short: as §1

CDK7/Cyclin H/MNAT1 = target: T2, CDK7/Cyclin H/MNAT1 (Homo sapiens, UniProt P50613); assay: Enzymatic assay for CDK7 (LANCE Ultra kinase assay, FRET based); format: biochemical; details: for IC50: ATP at Km
T2 construct: purchased Invitrogen PR6749B
In short: as §2

CDK2/Cyclin A = target: T3, CDK2/Cyclin A (Homo sapiens, UniProt P24941); assay: Enzymatic assay for CDK2 (LANCE Ultra kinase assay, FRET based); format: biochemical; details: ATP at Km
T3 construct: purchased Invitrogen PV6290
In short: (§3)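 Inhibition was measured at ATP Km with 68 nM ULight-MBP peptide and CDK2/Cyclin A ([…]) or CDK5/p25 ([…]), using 8-dose 4-fold compound dilutions from DMSO. Kinase reaction ran 60 min at 23° C, then Eu anti-phospho-MBP plus EDTA were added for another 60 min before the fluorescence read.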

CDK5/p25 = target: T4, CDK5/p25 (Homo sapiens, UniProt Q00535); assay: Enzymatic assay for CDK5 (LANCE Ultra kinase assay, FRET based); format: biochemical; details: ATP at Km
T4 construct: purchased Invitrogen PR8543B
In short: as §3

MV4-11 = assay: Cellular MV4-11 viability assay (CellTiter-Glo, 72 hours); format: cell-based; details: Homo sapiens; MV4-11 cells
Experimental: Human […] cell line, MV4-11_(ATCC, Cat #CRL-9591), NSCLC (Non-small cell lung cancer) cell line H460 (ATCC, Cat #HTB-177), A2780 (ECACC, Cat #93112519) and OVCAR-3(ATCC, Cat #HTB-161) were obtained from ATCC. Cells were grown in RPMI-1640 media (Invitrogen, Cat #22400-089) supplemented with 10% FBS (Invitrogen, Cat #10099141) and 1% penicillin/streptomycin (Invitrogen, Cat #15070063) and cultured at 37° C., 5% CO2 in a humidified chamber. All cell lines were routinely tested for mycoplasma.
To effect of the CDK7 inhibitor to inhibit the growth of target cancer cells, viability assay were conducted a 72 hour time period. Briefly, the candidate cell line was plated in 96 well plate at the following density of cells respectively. 1×10^4 cells/well for MV4-11, 5×10^3 for H460 and OVCAR-3, and 1×10^3 for A2780. After 24 hours, the cells were treated with various concentrations of the compound (ranging from 0.0015 uM to 10 uM). DMSO solvent without compound served as a control and final DMSO concentration lest than 0.1%. After 72 hours of incubation at 37° C., 5% CO2 incubator, cells were analyzed for the viability using the CellTiter-Glo Luminescent Cell Viability Assay (Promega, Cat #G7570). All viability assays were performed in duplicate and Luminescence was read using an Envision (Perkin Elmer, USA). Data was analyzed using XLfit software.

T1 sequence (P06493 whole entry): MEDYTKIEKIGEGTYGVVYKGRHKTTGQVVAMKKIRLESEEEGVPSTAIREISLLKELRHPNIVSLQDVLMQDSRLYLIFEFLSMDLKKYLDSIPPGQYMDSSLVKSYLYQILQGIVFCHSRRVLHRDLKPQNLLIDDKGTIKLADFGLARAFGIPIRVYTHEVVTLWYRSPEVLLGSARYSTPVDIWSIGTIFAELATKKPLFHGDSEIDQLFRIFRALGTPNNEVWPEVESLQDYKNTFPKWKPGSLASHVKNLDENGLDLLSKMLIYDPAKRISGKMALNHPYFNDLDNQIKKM
T1 sequence (P14635 whole entry partner): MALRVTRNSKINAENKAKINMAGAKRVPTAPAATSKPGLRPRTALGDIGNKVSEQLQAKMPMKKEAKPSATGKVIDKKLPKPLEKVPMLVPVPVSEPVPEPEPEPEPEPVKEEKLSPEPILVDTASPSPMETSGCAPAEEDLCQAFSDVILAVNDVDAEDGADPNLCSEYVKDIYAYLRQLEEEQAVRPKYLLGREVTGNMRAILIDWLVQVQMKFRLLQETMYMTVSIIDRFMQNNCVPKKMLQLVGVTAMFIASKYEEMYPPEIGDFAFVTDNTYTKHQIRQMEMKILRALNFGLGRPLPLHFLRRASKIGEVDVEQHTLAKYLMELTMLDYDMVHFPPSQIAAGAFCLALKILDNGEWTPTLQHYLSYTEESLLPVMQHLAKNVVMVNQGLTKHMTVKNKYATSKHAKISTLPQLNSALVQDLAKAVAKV
T4 sequence (Q00535 whole entry): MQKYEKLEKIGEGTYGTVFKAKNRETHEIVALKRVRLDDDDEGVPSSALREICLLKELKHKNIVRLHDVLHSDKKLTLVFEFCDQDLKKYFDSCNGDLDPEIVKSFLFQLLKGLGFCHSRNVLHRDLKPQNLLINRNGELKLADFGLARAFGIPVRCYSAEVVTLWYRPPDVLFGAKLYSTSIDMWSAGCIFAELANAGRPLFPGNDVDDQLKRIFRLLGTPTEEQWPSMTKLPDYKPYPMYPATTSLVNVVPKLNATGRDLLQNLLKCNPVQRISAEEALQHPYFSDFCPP
T4 sequence (Q15078 99-307 partner limits assumed): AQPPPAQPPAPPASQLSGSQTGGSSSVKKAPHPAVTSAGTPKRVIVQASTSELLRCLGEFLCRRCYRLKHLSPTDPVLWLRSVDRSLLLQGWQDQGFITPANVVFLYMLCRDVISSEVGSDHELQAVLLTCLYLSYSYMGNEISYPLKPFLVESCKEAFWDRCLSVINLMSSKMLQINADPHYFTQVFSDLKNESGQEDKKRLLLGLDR
T2 sequence (P50613 whole entry): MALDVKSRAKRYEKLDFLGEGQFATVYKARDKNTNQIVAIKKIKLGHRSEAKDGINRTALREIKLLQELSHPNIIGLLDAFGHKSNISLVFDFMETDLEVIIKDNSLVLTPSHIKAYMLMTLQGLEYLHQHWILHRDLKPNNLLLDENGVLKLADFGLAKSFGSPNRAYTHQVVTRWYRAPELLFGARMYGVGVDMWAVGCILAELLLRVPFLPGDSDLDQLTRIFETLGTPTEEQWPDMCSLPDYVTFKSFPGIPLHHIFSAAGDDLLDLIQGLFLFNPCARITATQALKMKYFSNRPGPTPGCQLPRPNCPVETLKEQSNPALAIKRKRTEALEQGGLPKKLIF
T2 sequence (P51946 whole entry partner): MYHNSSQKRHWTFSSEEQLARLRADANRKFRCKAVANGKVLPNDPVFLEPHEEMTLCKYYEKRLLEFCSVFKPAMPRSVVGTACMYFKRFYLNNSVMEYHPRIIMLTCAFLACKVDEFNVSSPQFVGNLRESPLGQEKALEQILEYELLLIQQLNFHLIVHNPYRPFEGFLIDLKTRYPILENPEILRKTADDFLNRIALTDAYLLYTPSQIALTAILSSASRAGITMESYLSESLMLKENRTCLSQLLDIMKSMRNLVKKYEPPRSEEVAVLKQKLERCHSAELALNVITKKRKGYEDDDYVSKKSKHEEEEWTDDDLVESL
T2 sequence (P51948 whole entry partner): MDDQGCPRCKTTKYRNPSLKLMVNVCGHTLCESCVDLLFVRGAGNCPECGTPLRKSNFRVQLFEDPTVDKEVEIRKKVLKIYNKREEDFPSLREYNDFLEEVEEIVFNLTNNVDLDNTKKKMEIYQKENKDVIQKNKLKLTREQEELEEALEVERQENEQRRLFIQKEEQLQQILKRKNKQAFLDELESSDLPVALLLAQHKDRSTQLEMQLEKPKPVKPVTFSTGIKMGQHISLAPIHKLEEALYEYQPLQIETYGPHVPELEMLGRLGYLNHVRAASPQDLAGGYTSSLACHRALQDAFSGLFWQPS

| IC50 (A2780) [µM] | IC50 (CDK1/Cyclin B) [µM] | IC50 (OVCAR-3) [µM] | IC50 (CDK7/Cyclin H/MNAT1) [µM] | CDK1/CDK7: Selectivity of CDK7 inhibition over CDK1 inhibition (CDK7/Cyclin H/MNAT1) | CDK2/CDK7: Selectivity of CDK7 inhibition over CDK2 inhibition (CDK7/Cyclin H/MNAT1) | CDK5/CDK7: Selectivity of CDK7 inhibition over CDK5 inhibition (CDK7/Cyclin H/MNAT1) | IC50 (CDK2/Cyclin A) [µM] | IC50 (CDK5/p25) [µM] | IC50 (MV4-11) [µM] | Compound |
| --- | --- | --- | --- | --- | --- | --- | --- | --- | --- | --- |
| < 1 | > 1 | < 1 | 0.1 to 1 | B (B indicates 50 < [fold] ≤ 500) | B (B indicates 50 < [fold] ≤ 500) | B (B indicates 50 < [fold] ≤ 500) | > 1 | > 1 | < 1 | CC(C)c1cnn2c(NCc3ccccc3-c3nccc4cc(NC(=O)/C=C/CN(C)C)ccc34)nc(NCC3CCOCC3)nc12 [Compound 43] |
| < 1 | > 1 | < 1 | < 0.1 | A (A indicates [fold] > 500) | A (A indicates [fold] > 500) | A (A indicates [fold] > 500) | > 1 | > 1 | < 1 | COC1CCC(Nc2nc(NCc3ccccc3-c3nccc4cc(NC(=O)/C=C/CN(C)C)ccc34)n3ncc(C(C)C)c3n2)CC1 (centres unmarked) [Compound 44] |
| < 1 | > 1 | < 1 | < 0.1 | A (A indicates [fold] > 500) | A (A indicates [fold] > 500) | A (A indicates [fold] > 500) | > 1 | > 1 | < 1 | CC(C)c1cnn2c(NCc3ccccc3-c3nccc4cc(NC(=O)/C=C/CN(C)C)ccc34)nc(NCC3CCNCC3)nc12 [Compound 45] |
| < 1 | > 1 | < 1 | < 0.1 | A (A indicates [fold] > 500) | A (A indicates [fold] > 500) | A (A indicates [fold] > 500) | > 1 | > 1 | < 1 | C=CC(=O)Nc1ccc2c(-c3ccccc3CNc3nc(N4CCC(N)CC4)nc4c(C(C)C)cnn34)nccc2c1 [Compound 46] |
| < 1 | > 1 | < 1 | < 0.1 | A (A indicates [fold] > 500) | A (A indicates [fold] > 500) | B (B indicates 50 < [fold] ≤ 500) | > 1 | > 1 | < 1 | CC#CC(=O)Nc1ccc2c(-c3ccccc3CNc3nc(N4CCC(N)CC4)nc4c(C(C)C)cnn34)nccc2c1 [Compound 47] |
| < 1 | > 1 | < 1 | < 0.1 | A (A indicates [fold] > 500) | A (A indicates [fold] > 500) | A (A indicates [fold] > 500) | > 1 | > 1 | < 1 | C=C(C)C(=O)Nc1ccc2c(-c3ccccc3CNc3nc(N4CCC(N)CC4)nc4c(C(C)C)cnn34)nccc2c1 [Compound 48] |
| < 1 | > 1 | < 1 | < 0.1 | A (A indicates [fold] > 500) | A (A indicates [fold] > 500) | A (A indicates [fold] > 500) | > 1 | > 1 | < 1 | CC(C)c1cnn2c(NCc3ccccc3-c3nccc4cc(NC(=O)C5(C#N)CC5)ccc34)nc(N3CCC(N)CC3)nc12 [Compound 49] |
| < 1 | > 1 | < 1 | < 0.1 | A (A indicates [fold] > 500) | A (A indicates [fold] > 500) | A (A indicates [fold] > 500) | > 1 | > 1 | < 1 | C/C=C/C(=O)Nc1ccc2c(-c3ccccc3CNc3nc(N4CCC(N)CC4)nc4c(C(C)C)cnn34)nccc2c1 [Compound 50] |
| < 1 | > 1 | < 1 | < 0.1 | A (A indicates [fold] > 500) | A (A indicates [fold] > 500) | A (A indicates [fold] > 500) | > 1 | > 1 | < 1 | CC(C)c1cnn2c(NCc3ccccc3-c3nccc4cc(NC(=O)/C=C/CN5CCCCC5)ccc34)nc(N3CCC(N)CC3)nc12 [Compound 52] |
| < 1 | > 1 | < 1 | < 0.1 | A (A indicates [fold] > 500) | A (A indicates [fold] > 500) | A (A indicates [fold] > 500) | > 1 | > 1 | < 1 | CC(C)c1cnn2c(NCc3ccccc3-c3nccc4cc(NC(=O)/C=C/CN5CCOCC5)ccc34)nc(N3CCC(N)CC3)nc12 [Compound 53] |
| < 1 | > 1 | < 1 | < 0.1 | A (A indicates [fold] > 500) | A (A indicates [fold] > 500) | A (A indicates [fold] > 500) | > 1 | > 1 | < 1 | COC/C=C/C(=O)Nc1ccc2c(-c3ccccc3CNc3nc(N4CCC(N)CC4)nc4c(C(C)C)cnn34)nccc2c1 [Compound 54] |
| < 1 | > 1 | < 1 | < 0.1 | A (A indicates [fold] > 500) | A (A indicates [fold] > 500) | B (B indicates 50 < [fold] ≤ 500) | > 1 | > 1 | < 1 | CC(C)c1cnn2c(NCc3ccccc3-c3ccnc4cc(NC(=O)/C=C/CN(C)C)ccc34)nc(N3CCC(N)CC3)nc12 [Compound 55] |
| < 1 | > 1 | < 1 | < 0.1 | A (A indicates [fold] > 500) | A (A indicates [fold] > 500) | A (A indicates [fold] > 500) | > 1 | > 1 | < 1 | Cc1cccc(-c2ccc3cccc(NC(=O)/C=C/CN(C)C)c3n2)c1CNc1nc(N2CCC(N)CC2)nc2c(C(C)C)cnn12 [Compound 56] |
| < 1 | > 1 | < 1 | < 0.1 | A (A indicates [fold] > 500) | A (A indicates [fold] > 500) | A (A indicates [fold] > 500) | > 1 | > 1 | < 1 | CC(C)c1cnn2c(NCc3ccccc3-c3nccc4cc(NC(=O)/C=C/CN5CCCC5)ccc34)nc(N3CCC(N)CC3)nc12 [Compound 57] |
